Experimental findings from patent US9029559B2, “Substituted 3-heteroaroylamino-propionic acid derivatives and their use as pharmaceuticals” (SANOFI, priority 2011, dated 2015) are described below.

This assay deals with Recombinant human cathepsin A (Homo sapiens (Human), UniProt P10619). Briefly: Cathepsin A inhibitory activity (cleavage of Bodipy FL-labeled bradykinin, microfluidic capillary electrophoresis). Format: biochemical.
Where [1] appears, read: read-out: Activity (IC50, cathepsin A inhibition).

For orientation: IC50 means the concentration that gives 50% inhibition.

Like-named read-outs stand apart in the source and are kept apart here.

Chain of Recombinant human cathepsin A (P10619 29-326): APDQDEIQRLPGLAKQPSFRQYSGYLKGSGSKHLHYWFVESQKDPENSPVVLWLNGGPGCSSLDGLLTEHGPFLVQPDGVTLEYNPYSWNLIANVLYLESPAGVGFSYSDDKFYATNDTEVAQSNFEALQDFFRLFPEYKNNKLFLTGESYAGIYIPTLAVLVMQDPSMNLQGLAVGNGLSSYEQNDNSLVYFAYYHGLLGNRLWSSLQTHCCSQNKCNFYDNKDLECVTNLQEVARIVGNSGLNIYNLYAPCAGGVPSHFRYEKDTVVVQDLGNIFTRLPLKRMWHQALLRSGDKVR
Chain of Recombinant human cathepsin A (P10619 327-480): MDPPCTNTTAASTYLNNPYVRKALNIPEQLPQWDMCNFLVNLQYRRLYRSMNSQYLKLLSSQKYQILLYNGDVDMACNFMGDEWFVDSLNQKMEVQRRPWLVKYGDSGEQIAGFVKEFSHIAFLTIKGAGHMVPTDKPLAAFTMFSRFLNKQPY

For the molecule `O=C(O)C[C@H](NC(=O)c1cccc(-c2ccccc2Cl)n1)c1ccccc1` [compound 567], under setting [1], the IC50 came to 2.18 µM.
In the case of `COc1ccc(C(=O)N[C@@H](CC(=O)O)c2ccccc2F)nc1-c1ccnc(N2CCOCC2)c1` [compound 321], for the setting “read-out: Activity [μM] (IC50, cathepsin A inhibitory activity)”, the half-inhibitory concentration (IC50) is over 10 µM.
With `Cc1ccccc1[C@H](CC(=O)O)NC(=O)c1cncc(Cl)n1` [compound 514], the IC50 under setting [1] stood at 1.21 µM.
Consider `Cc1ccccc1[C@H](CC(=O)O)NC(=O)c1ccc(Oc2ccccc2)nc1` [compound 46], for which the IC50 (read-out: Activity (IC50, cathepsin A inhibitory activity)) amounted to 9.94 µM.
